Measurements reported in patent US6444646B1, “Use of angiotensin II type 2 receptor agonists in tissue repair” (University of Southern California, priority 1995, dated 2002).
Like-named read-outs stand apart in the source and are kept apart here. Non-standard residues stand in square brackets, D forms with d. No end group written: not given here. Phe(4-NH2) = Nc1ccc(C[C@H](N)C(=O)O)cc1

Columns and labels:
[1] = tested on: intimal hyperplasia after balloon injury; conditions: cited from earlier work
wound tissue = conditions: applied to wound tissue; cited from earlier work
[2] = tested on: full thickness dermal wounds; assay: rat model for dermal repair (full thickness dermal wounds); assay type: in vivo; conditions: 100 μg/d for 5 days
Method: Female Sprague Dawley rats, 175-200 g, were obtained from Simonsen Laboratories, Gilroy, Calif. On the day of surgery, the rats received intramuscular ketamine/rompum anesthesia prior to preparation for surgery. The rats were shaved and scrubbed with betadine. Two 1.5×1.5 cm full thickness dermal wounds were created on the dorsal surface of the rat. Following excision of the skin, the size of the wound was outlined on a glass slide and the medicament was administered in 100 μl 10% low viscosity carboxymethyl cellulose (Sigma). The test materials were administered in a randomized fashion; all materials were tested at 100 μg/wound. Controls were treated with vehicle only. After administration of the materials, the rats were bandaged and allowed to recover from anesthesia. On days 1-4 after surgery, the rats were treated with an additional 100 μg of peptide formulation. At days 2, 4 ,7 and 9, the area of the skin wounds were measured under methoxyflurane anesthesia (commercially available as Metofane from Pittman-Moore, Mundelein, Ill.). The area of the wound was determined by (1) tracing the wound shape onto graph paper (1×1 mm squares); (2) cutting out the shape; (3) weighing the paper and comparing the weight with a 1.5×1.5 cm paper cutout; and (4) counting the number of squares. In addition, on days 2, 4 and 7, the area of granulation tissue was similarly determined.
As illustrated in FIGS. 1-2, wound closure and the formation of granulation tissue was substantially accelerated relative to the control animals when the test animals were treated with an AT2 agonist. FIG. 1 illustrates the percent of control response in wound closure relative to a vehicle-treated control; FIG. 2 illustrates the percent increase in formation of granulation tissue relative to a vehicle control.

AT2 receptor [3] = conditions: higher affinity for AT2 than AT1; cited from earlier work
AT2 receptor [4] = conditions: experimental models tested (rabbit vas deferens; NG-108-15); cited from earlier work
[5] = rat dermal wounds, relative to vehicle-treated control

In the case of `Cc1cc(Cn2cnc3c2C[C@@H](C(=O)O)N(C(=O)C(c2ccccc2)c2ccccc2)C3)ccc1N(C)C` [PD 123319], the “reduction of intimal hyperplasia” value ([1]; rats, after balloon injury) is given as 73%.
For `CCCCc1nc(Cl)c(CO)n1Cc1ccc(-c2ccccc2-c2nn[nH]n2)cc1` [losartan], the neointimal formation ([1]; other studies, higher doses) is given as “effective”, the “decrease of intimal area” value ([1]; rats, after balloon injury) is given as 95% and the neointimal formation ([1]; similar model, low doses) is given as “ineffective”.
In the case of “Asp-Arg-Val-Tyr-Ile-His-Pro-Phe (DRVYIHPF) [angiotensin II, octapeptide present in humans and other species; known pressor agent]”, the “rate of wound healing” value (wound tissue) is given as “significantly increases”.
In the case of “Asp-Arg-Val-Tyr-Ile-Xaa-Pro-Phe [SEQ ID NO:2] wherein Xaa is p-NH2-Phe (DRVYI[Phe(4-NH2)]PF) [p-aminophenylalanine6-AII]”, the granulation tissue formation [2, 5] is reported as “accelerated”, the wound closure [2, 5] is reported as “accelerated” and the “results in dermal repair compared with AII” value ([2]; rat) is reported as “comparable to AII”. For the same compound, the “affinity for AT2 relative to AT1” value (AT2 receptor [3]) was 1000 × and the binding characteristics (AT2 receptor [4]) was “comparable to the AT2 antagonists”.
For CGP 42112, the neointimal formation ([1]; similar model, infused perivascularly for 14 days) is given as “prevented neointimal formation”.
